Measurements as given in PMC11530130, “Peripherally restricted PICK1 inhibitor mPD5 ameliorates pain behaviors in murine inflammatory and neuropathic pain models” (JCI Insight, 2024).
“And” between values parts separate entries of the source, which are not always exact repeats. Equal entries are not always repeated.

Tests used:
Assay type in all cases: in vivo, mouse
[1] = system: mice, CIBP model (NCTC 2472 cell inoculation); experiment: Cancer-induced bone pain (CIBP) model, von Frey; conditions: for effect on PWT: CIBP, female mice
Protocol: (§1) solution (0.05 mg/kg) injected s.c. 30 min before surgery (10 μL/g). For surgery, mice were anaesthetised with ketamine (100 mg/kg, i.p.) and xylazine (10 mg/kg, i.p.) (volume 10 µL/g) with 100 μL of 1% xylocaine solution infiltrated at the site of the incision. The distal trifurcation of the sciatic nerve was identified, and the tibial and common peroneal branches were ligated with polypropylene nonabsorbable 6-0 sutures (Ethicon) and 1 mm was cut out, leaving the sural branch intact. The wound was closed with sutures, and the animals were allowed to recover and returned to their cages. Two subcutaneous injections of buprenorphine (0.05 mg/kg) were performed with an 8 to 12 hours delay decreasing pain due to the surgery […]
(§2) The remaining SNI pain experiments were performed in-house using the following procedure.
(§3) SNI surgery was performed on the left hindleg of C57BL/6J male and female mice (Janvier, France) under 2% isoflurane anaesthesia. Skin on the lateral surface was incised between hip and knee followed by lengthwise division of the biceps femoris muscle leading to exposure of the three branches of the sciatic nerve. Sural branch was left intact, while the peroneal and tibial branches were ligated with a single surgical knot and axotomized distally of the ligation.
(§4) Wounds were closed with surgical glue or medical clips and animals were monitored daily for signs of stress or discomfort, but in all cases recovered uneventfully.
(§5) Induction of Diabetic neuropathy (STZ model).
(§6) Diabetes was induced by a single i.p. injection of […] streptozocin (STZ) solution (100 μL/10 g, Sigma-Aldrich S0130, batch #WXBB7152V) in male seven-week-old C57BL/6J (Charles River) mice. Glycemia was tested before, and seven days after injection. All injected mice had blood glucose concentration >350 mg/dL from day seven and were used for analgesic testing of the compounds from day 14. One mouse had to be euthanized at seven days post injection. This experiment was performed by Phenotype Expertise, Marseilles, France - Pain and CNS behaviour CRO under supervision of Stéphane Gaillard, PhD (CEO).
(§7) Induction of cancer induced bone pain (CIBP model).
(§8) Osteosarcoma cell line NCTC 2472 (American Type Culture Collection, CCL-11TM) was cultured for two weeks prior to surgery in NCTC-135 medium (Sigma-Aldrich, Denmark) supplemented with sodium hydrogen carbonate and 10% equine serum (Sigma-Aldrich, Denmark). On the day of surgery, cells were washed with PBS and incubated with 3 mL trypsin-EDTA for five min followed by centrifugation (2800 rpm, 3 min). Supernatant was removed, and cell pellet resuspended in PBS to obtain a cell density of 10^7 cells/mL.
(§9) Two separate cohorts of female C3H/HeNHsd mice (Envigo, Netherlands) of 7-8 weeks, were anaesthetized with 6.25 mg/kg xylazine (Rompun vet, 20 mg/mL, Bayer, KVP Pharma + Veterinär Produkte GmbH, Germany, Batch: KV02BHF) and 43.75 mg/kg ketamine (Ketaminol vet, 100 mg/mL, MSD Animal Health, AN Boxmeer, The Netherlands, Batch:
(§10) A140A01) and received 1.0-1.2% isoflurane (1000 mg/g isoflurane, Attane vet, ScanVet, Piramal Critical Care Ltd., UK, Batch: G123J18B) during surgery. The mouse was placed on a 37 °C heating pad. Both hind legs were shaved, and a small horizontal incision was made under the knee followed by a vertical incision of approximately 0.5 cm until the patellar tendon was exposed. The patellar tendon was moved to the lateral side exposing the distal epiphysis of the femur. A hole was made in the middle of the distal epiphysis by gently pushing a 30 G needle (0.3x12 mm, 30 Gx1/2”, Luer-Lock, CHIRANA T. Injecta, CH30012) through the bone while rotating. The position of the needle was confirmed by X-ray imaging (IVIS Lumina XR Apparatus, Caliper Life Sciences, Belgium). Following resuspension, 10 μL, corresponding to […]
(§11) […] NCTC 2472 cells or PBS (sham mice), was injected in the bone marrow cavity with an insulin syringe (1 mL Luer, BD PlastipakTM, 303172) attached to a 30 G needle and left in the […]
(§12) femur for one min. […]

[2] = system: mice, CIBP model (NCTC 2472 cell inoculation); experiment: CIBP model, static weight bearing; conditions: for effect on weight-bearing ratio: CIBP, female mice; for static weight bearing (Fig S7C): CIBP mice, individual animals
Protocol: as §1, §2, §3, §4, §5, §6, §7, §8, §9, §10, §11, §12

[3] = system: mice, CIBP model (NCTC 2472 cell inoculation); experiment: CIBP model, limb use score; conditions: for effect on limb-use score: CIBP, female mice; for limb use score (Fig S7B): CIBP mice, individual animals
Protocol: as §1, §2, §3, §4, §5, §6, §7, §8, §9, §10, §11, §12

[4] = system: naive mice; experiment: Capsaicin test (licking time); set-up: capsaicin-induced licking time, individual mice: unit not given here; conditions: for capsaicin-induced licking time, individual mice: female and male; for effect on capsaicin-induced licking time: naive mice, both sexes
Protocol: Naïve wildtype male and female mice (10 weeks of age) were habituated to handling and experimental set up for one week prior to data collection. […]
Mice were pretreated with 10 μmol/kg mPD5, 10 mg/kg morphine (RH Pharmacy, Denmark, Vnr. 475249), or PBS 45 min before habituation to observation container (glass cylinder surrounded by mirrors on 2 sides) for 15 min. Mice then received an intraplantar injection of 20 µl capsaicin (1.6 ug/paw) (sigma CAS Number:404-86-4, diluted with 1:1:8 solution of tween-20, 70% ethanol, and MilliQ water) in one hind paw and were reintroduced to the observation container. Mice were recorded for three min after i.pl. injection with capsaicin and euthanized the same day. Mice were scored manually for the amount of time spent paw licking within three min after capsaicin administration. […]
Females were weighed on a regular basis from removal of the males […]
Unless otherwise stated, all data were analysed using GraphPad Prism 9.4.1. and presented as mean +-SEM with the significance level set to p < 0.05. For locomotion and elevated plus maze, Ethovision XT 13 (Noldus) was used to track the distance travelled by each animal. For within group analysis (i.e., von Frey experiments), two-way ANOVA followed by Dunnett’s post hoc test was used. For between group analysis of multiple time points (i.e., locomotion experiments), two-way ANOVA was used without post hoc test due to lack of treatment significance in the ANOVA test. For the limb use experiment, data pre versus post treatment was analysed with a Kruskal Wallis test due to the non-parametric nature of the data. When analysing histograms of three groups or more (i.e., marble burying and elevated plus maze),

## CCCCCCCCCCCCCC(=O)N(CCOCCOCCC(=O)N[C@@H](Cc1c[nH]cn1)C(=O)N[C@@H](Cc1c[nH]c2ccccc12)C(=O)N[C@@H](CC(C)C)C(=O)N[C@@H](CCCCN)C(=O)N[C@H](C(=O)O)C(C)C)CCOCCOCCC(=O)N[C@@H](Cc1c[nH]cn1)C(=O)N[C@@H](Cc1c[nH]c2ccccc12)C(=O)N[C@@H](CC(C)C)C(=O)N[C@@H](CCCCN)C(=O)N[C@H](C(=O)O)C(C)C [mPD5, myristoyl-NPEG4-(HWLKV)2]
[1]; s.c. 10 μmol/kg
  effect on PWT: no effect
[2]; s.c. 10 μmol/kg
  effect on weight-bearing ratio: no effect
[3]; s.c. 10 μmol/kg
  effect on limb-use score: no effect
[4]; 10 umol/kg, female mice
  capsaicin-induced licking time, individual mice: 12.96 and 9.28 and 8.67 and 18.61
[4]; 10 umol/kg, male mice
  capsaicin-induced licking time, individual mice: 12.98 and 14.19 and 30.63
[4]; s.c. 10 μmol/kg
  effect on capsaicin-induced licking time: no effect on time spent licking

## CN1CC[C@]23c4c5ccc(O)c4O[C@H]2[C@@H](O)C=C[C@H]3[C@H]1C5 [morphine]
[1]; BL1 (baseline 1)
  von Frey paw withdrawal threshold, individual animals (Fig 4C): 1.5 and 0.8 and 0.6 and 1 (2×) and 0.9 and 1.3 and 2 and 1.7 and 1.2
[1]; BL2 (baseline 2)
  von Frey paw withdrawal threshold, individual animals (Fig 4C): 2.9 and 1.1 and 0.8 and 2.6 and 1.3 (2×) and 1.9 and 2.1 (2×) and 1.2
[1]; s.c. 5 mg/kg
  effect on PWT: partial but significant increase
[1]; Post (after treatment)
  von Frey paw withdrawal threshold, individual animals (Fig 4C): 1.1 (2×) and 1 (2×) and 1.2 (3×) and 0.9 and 1.3 (2×)
[1]; Pre (before treatment)
  von Frey paw withdrawal threshold, individual animals (Fig 4C): 0.6 (2×) and 0.2 (3×) and 0.4 (3×) and 0.5 and 0.3
[2]; BL1
  static weight bearing (Fig S7C): 50.01 and 50.76 and 43.99 and 53.97 and 55.19 and 55.68 and 51.81 and 54.18 and 46.08 and 56.67
[2]; BL2
  static weight bearing (Fig S7C): 47.61 and 46.15 and 51.95 and 48.94 and 50.73 and 54.51 and 47.91 and 45.61 and 50.32 and 52.04
[2]; Post (after treatment)
  static weight bearing (Fig S7C): 30.29 and 34.04 and 29.99 and 42.43 and 37.09 and 45.12 and 35.66 and 34.06 and 42.67 and 36.03
[2]; Pre (before treatment)
  static weight bearing (Fig S7C): 24.27 and 31.25 and 36.25 and 30.33 and 34.01 and 33.28 and 32.53 and 29.97 and 30.04 and 32.35
[2]; s.c. 5 mg/kg
  effect on weight-bearing ratio: partial but significant increase
[3]; BL1
  limb use score (Fig S7B): 4
[3]; BL2
  limb use score (Fig S7B): 4
[3]; Post (after treatment)
  limb use score (Fig S7B): 3 (3×) and 1 (2×) and 2 (4×) and 0
[3]; Pre (before treatment)
  limb use score (Fig S7B): 2 (3×) and 1 (5×) and 0 (2×)
[3]; s.c. 5 mg/kg
  effect on limb-use score: partial but significant increase
[4]; 10 mg/kg
  capsaicin-induced licking time, individual mice: 0
[4]; s.c. 10 mg/kg
  effect on capsaicin-induced licking time: significantly reduced the licking time
